# Results from US10385085B2, “Crystal forms of sialic acid or salt or solvate thereof” (Ultragenyx Pharmaceutical Inc., priority 2015, dated 2019).
# Assay: Approximate solvent solubility screen (aliquot addition)
# Format: physicochemical
# Conditions: for solubility: 40 °C, thermodynamic from solid
# Experimental: Approximately 10 mg of sialic acid was used to check the solubility in 31 different solvents or solvent mixtures.
# 50 μl aliquots of solvent were added in attempts to dissolve the sialic acid. The volume range used varied between 50 μl and 2 ml. Dissolution was aided by heating to 40° C. and shaking the vial between aliquots.
# The mixture of solvents Ethanol:Acetone:Ethyl acetate (85:12:3 wt %) will be referred to as “Ethynol” hereafter.
structure (smiles),measurement,setting,value
"CC(=O)N[C@H]1[C@H]([C@H](O)[C@H](O)CO)OC(O)(C(=O)O)C[C@@H]1O (some centres unmarked) [Sialic acid, N-acetylneuraminic acid]",solubility,"aqueous with cosolvent or surfactant or cyclodextrin, solvent: Water:Acetic Acid (80:20) v/v",> 213000 µg/mL
same,solubility,"organic solvent or mixture, solvent: 1,4-Dioxane",< 4900 µg/mL
same,solubility,"organic solvent or mixture, solvent: 1-Butanol",< 6100 µg/mL
same,solubility,"organic solvent or mixture, solvent: 2-Ethoxy ethanol",< 6800 µg/mL
same,solubility,"organic solvent or mixture, solvent: 2-Methyl THF",< 5200 µg/mL
same,solubility,"organic solvent or mixture, solvent: 2-propanol",< 5000 µg/mL
same,solubility,"organic solvent or mixture, solvent: Acetic acid",< 5400 µg/mL
same,solubility,"organic solvent or mixture, solvent: Acetone",< 5600 µg/mL
same,solubility,"organic solvent or mixture, solvent: Acetone:Ethanol (50:50) v/v",< 5100 µg/mL
same,solubility,"organic solvent or mixture, solvent: Acetone:Ethyl Acetate (50:50) v/v",< 4800 µg/mL
same,solubility,"organic solvent or mixture, solvent: Acetone:Water (90:10) v/v",< 5100 µg/mL
same,solubility,"organic solvent or mixture, solvent: Acetonitrile",< 4800 µg/mL
same,solubility,"organic solvent or mixture, solvent: Dichloromethane",< 5100 µg/mL
same,solubility,"organic solvent or mixture, solvent: Diisopropyl ether",< 4800 µg/mL
same,solubility,"organic solvent or mixture, solvent: Dimethylacetamide",> 72600 µg/mL
same,solubility,"organic solvent or mixture, solvent: Dimethylsulfoxide",> 301000 µg/mL
same,solubility,"organic solvent or mixture, solvent: Ethanol",< 5100 µg/mL
same,solubility,"organic solvent or mixture, solvent: Ethanol:Water (90:10) v/v",< 5200 µg/mL
same,solubility,"organic solvent or mixture, solvent: Ethyl acetate",< 5800 µg/mL
same,solubility,"organic solvent or mixture, solvent: Ethynol (Ethanol:Acetone:Ethyl acetate 85:12:3 wt %)",< 5300 µg/mL
same,solubility,"organic solvent or mixture, solvent: Isopropyl acetate",< 6500 µg/mL
same,solubility,"organic solvent or mixture, solvent: Methanol",< 5200 µg/mL
same,solubility,"organic solvent or mixture, solvent: Methylethyl ketone",< 5700 µg/mL
same,solubility,"organic solvent or mixture, solvent: Methylisobutyl ketone",< 6300 µg/mL
same,solubility,"organic solvent or mixture, solvent: N-Methyl-2-pyrrolidone",> 72100 µg/mL
same,solubility,"organic solvent or mixture, solvent: Nitromethane",< 6000 µg/mL
same,solubility,"organic solvent or mixture, solvent: Tetrahydrofuran",< 5300 µg/mL
same,solubility,"organic solvent or mixture, solvent: Toluene",< 5900 µg/mL
same,solubility,"organic solvent or mixture, solvent: n-Heptane",< 5300 µg/mL
same,solubility,"organic solvent or mixture, solvent: tert-Butylmethyl ether",< 4600 µg/mL
same,solubility,solvent: Water,> 212000 µg/mL
same,Visual Observation,"solvent: 1,4-Dioxane",Partial Solubility
same,Visual Observation,solvent: 1-Butanol,Partial Solubility
same,Visual Observation,solvent: 2-Ethoxy ethanol,Partial Solubility
same,Visual Observation,solvent: 2-Methyl THF,Partial Solubility
same,Visual Observation,solvent: 2-propanol,Partial Solubility
same,Visual Observation,solvent: Acetic acid,Partial Solubility
same,Visual Observation,solvent: Acetone,Low Solubility
same,Visual Observation,solvent: Acetone:Ethanol (50:50) v/v,Partial Solubility
same,Visual Observation,solvent: Acetone:Ethyl Acetate (50:50) v/v,Low Solubility
same,Visual Observation,solvent: Acetone:Water (90:10) v/v,Partial Solubility
same,Visual Observation,solvent: Acetonitrile,Low Solubility
same,Visual Observation,solvent: Dichloromethane,Partial Solubility
same,Visual Observation,solvent: Diisopropyl ether,Low Solubility
same,Visual Observation,solvent: Dimethylacetamide,Soluble
same,Visual Observation,solvent: Dimethylsulfoxide,Soluble
same,Visual Observation,solvent: Ethanol,Partial Solubility
same,Visual Observation,solvent: Ethanol:Water (90:10) v/v,Partial Solubility
same,Visual Observation,solvent: Ethyl acetate,Extremely low
same,Visual Observation,solvent: Ethynol (Ethanol:Acetone:Ethyl acetate 85:12:3 wt %),Partial Solubility
same,Visual Observation,solvent: Isopropyl acetate,Extremely low
same,Visual Observation,solvent: Methanol,Partial Solubility
same,Visual Observation,solvent: Methylethyl ketone,Partial Solubility
same,Visual Observation,solvent: Methylisobutyl ketone,Low Solubility
same,Visual Observation,solvent: N-Methyl-2-pyrrolidone,Soluble
same,Visual Observation,solvent: Nitromethane,Low Solubility
same,Visual Observation,solvent: Tetrahydrofuran,Low Solubility
same,Visual Observation,solvent: Toluene,Partial Solubility
same,Visual Observation,solvent: Water,Soluble
same,Visual Observation,solvent: Water:Acetic Acid (80:20) v/v,Soluble
same,Visual Observation,solvent: n-Heptane,Extremely low
same,Visual Observation,solvent: tert-Butylmethyl ether,Extremely low
